Experimental data: US12655142B2 (Merck Patent GmbH, priority 2019, dated 2026)

Key:
c-Kit(V654A) = biological target: T1, c-Kit(V654A) (Homo sapiens, UniProt P10721, V654A); assay: c-Kit(V654A) assay (33P-ATP filter binding kinase assay); format: biochemical; conditions: recombinant human c-Kit aa 544-end V654A, ATP 200 μM
T1 construct: recombinant human c-Kit, amino acids 544-end containing the V654A mutation; GST (N)
Method: c-Kit(V654A) (N-terminal GST-tagged, recombinant human c-Kit, amino acids 544-end containing the V654A mutation) is incubated with 8 mM MOPS pH 7.0, 0.2 mM EDTA, 250 μM GGMEDIYEFMGGKKK, 10 mM MgAcetate and [gamma-33P-ATP] (specific activity approx. 500 cpm/pmol, concentration 200 μM). The reaction is initiated by the addition of the MgATP mix. After incubation for 40 minutes at room temperature, the reaction is stopped by the addition of 3% phosphoric acid solution. 10 μL of the reaction is then spotted onto a P30 filtermat and washed three times for 5 minutes in 75 mM phosphoric acid and once in methanol prior to drying and scintillation counting.

[1] = biological target: T2, GIST430/654 cell line expressing mutated constitutively active cKIT receptor tyrosine kinase (Δ560-576 deletion and V654A point mutation) (Homo sapiens, UniProt P10721, DEL560-576/V654A); assay: Cellular cKIT autophosphorylation (phospho-Y307-cKIT, Luminex bead assay) in GIST430/654 cells; format: cell-based; conditions: compounds 45 min, read-out: GIST 430/654 IC50
T2 construct: endogenous in cells; host or cells: GIST430/654 cells
T2 sequence (P10721 with tags, fused parts or gaps DEL560-576/V654A): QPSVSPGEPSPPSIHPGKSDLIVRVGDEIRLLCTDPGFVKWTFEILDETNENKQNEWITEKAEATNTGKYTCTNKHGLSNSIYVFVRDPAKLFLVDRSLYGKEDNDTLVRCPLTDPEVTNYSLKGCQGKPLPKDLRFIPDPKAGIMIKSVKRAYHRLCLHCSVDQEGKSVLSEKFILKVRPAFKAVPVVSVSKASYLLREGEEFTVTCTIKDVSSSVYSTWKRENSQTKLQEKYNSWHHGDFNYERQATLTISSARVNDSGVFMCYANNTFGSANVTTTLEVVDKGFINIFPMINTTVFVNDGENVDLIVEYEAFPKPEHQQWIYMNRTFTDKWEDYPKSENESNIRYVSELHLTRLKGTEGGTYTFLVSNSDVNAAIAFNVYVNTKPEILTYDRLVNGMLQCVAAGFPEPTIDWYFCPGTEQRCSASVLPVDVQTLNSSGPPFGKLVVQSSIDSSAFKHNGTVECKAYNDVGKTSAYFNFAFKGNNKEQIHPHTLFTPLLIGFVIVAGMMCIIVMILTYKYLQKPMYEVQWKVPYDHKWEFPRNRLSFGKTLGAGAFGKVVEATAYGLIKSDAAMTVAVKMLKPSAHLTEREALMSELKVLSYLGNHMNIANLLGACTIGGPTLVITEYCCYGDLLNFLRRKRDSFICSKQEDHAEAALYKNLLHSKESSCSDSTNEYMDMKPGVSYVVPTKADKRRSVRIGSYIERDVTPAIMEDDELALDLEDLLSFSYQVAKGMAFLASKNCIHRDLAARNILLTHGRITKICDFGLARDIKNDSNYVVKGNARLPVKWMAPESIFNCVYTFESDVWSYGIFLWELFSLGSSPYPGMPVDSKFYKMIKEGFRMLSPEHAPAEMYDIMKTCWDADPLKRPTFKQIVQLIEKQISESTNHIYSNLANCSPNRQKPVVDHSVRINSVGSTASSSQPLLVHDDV
Method: Assay Principle for Cellular Testing of cKIT Mutant Inhibitors
The GIST430 cell line expressing constitutive active cKIT receptor tyrosine kinase (Δ560-576 deletion) and the Imatinib resistant GIST430/654 cell line expressing mutated constitutively active cKIT receptor tyrosine kinase (Δ560-576 deletion and V654A point mutation) were employed for assessing cellular potency of compounds. Cellular activity of mutant cKIT was determined by the degree of cKIT autophosphorylation at tyrosine 307 using a Luminex-based bead assay. GIST430 cells were plated with 22,000 cells per well of a 96-well plate in 100 μl medium (85% IMDM/15% FCS) and GIST430/654 cells were plated with 25,000 cells per well of a 96-well plate in 100 μl medium (85% IMDM/15% FCS supplemented with 100 nM Imatinib). At the following day compounds were added in a serial dilution for 45 min. Then, cells were lysed with 90 μl lysis buffer (20 mM Hepes pH 7.5, 200 mM NaCl, 1.5 mM MgCl2×6H2O, 0.4 mM EDTA, 1% Triton-X-100, 1% Phosphatase-Inhibitor II, 20 mM β-Glycerolphosphat, 0.1% Protease-Inhibitor Cocktail III, 0.01% Benzonase) and lysates were cleared by centrifugation through a 96-well filter plate (0.65 μm). Samples were incubated with Luminex-beads which were coupled with an anti-total cKIT antibody overnight at 4° C. under gentle agitation. For detection of phospho-Y307-cKIT a phosphospecific antibody and a species-specific PE-labeled secondary antibody were added. The amount of phospho-Y307-cKIT was determined in a Luminex 200 instrument measuring 100 events per well within 60 seconds.
Counts from samples treated with compounds were calculated as percent of control from solvent treated (0.3% DMSO) samples. Dose-response curves were fitted and IC50 values were determined using Genedata Screener software.

T1 sequence (P10721 544-976 V654A): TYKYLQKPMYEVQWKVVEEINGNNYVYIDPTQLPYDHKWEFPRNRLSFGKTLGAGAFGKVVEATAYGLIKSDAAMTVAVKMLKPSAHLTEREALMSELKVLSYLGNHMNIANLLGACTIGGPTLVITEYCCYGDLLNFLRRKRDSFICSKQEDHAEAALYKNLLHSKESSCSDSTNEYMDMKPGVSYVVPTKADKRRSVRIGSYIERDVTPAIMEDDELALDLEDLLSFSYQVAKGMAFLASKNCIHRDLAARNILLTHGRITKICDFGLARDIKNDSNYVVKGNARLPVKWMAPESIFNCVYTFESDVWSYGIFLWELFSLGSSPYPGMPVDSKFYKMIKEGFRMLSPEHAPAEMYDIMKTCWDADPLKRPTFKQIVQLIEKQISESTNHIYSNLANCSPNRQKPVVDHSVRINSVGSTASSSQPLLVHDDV

Compound	IC50 (c-Kit(V654A)) [nM]	IC50 [1] [nM]
CN1CCO[C@H](COc2ccn3c(-c4cc(NCc5ccc(-c6cnn(C)c6)cc5)ncn4)cnc3c2)C1 [A118, {6-[7-((S)-4-methyl-morpholin-2-ylmethoxy)-imidazo[1,2-a]pyridin-3-yl]-pyrimidin-4-yl}-[4-(1-methyl-1H-pyrazol-4-yl)-benzyl]-amine]	4.7	40
Cn1cc(-c2ccc(CNc3cc(-c4cnc5cc(OC6CCNCC6)ccn45)ncn3)cc2)cn1 [A164, N-{[4-(1-methyl-1H-pyrazol-4-yl)phenyl]methyl}-6-[7-(piperidin-4-yloxy)imidazo[1,2-a]pyridin-3-yl]pyrimidin-4-amine]	9	260
Cn1ncc(-c2ccc(CNc3cc(-c4cnc5cc(OCCCN6CC7(COC7)C6)ccn45)ncn3)cc2)n1 [A239, [4-(2-methyl-2H-[1,2,3]triazol-4-yl)-benzyl]-(6-{7-[3-(2-oxa-6-aza-spiro[3.3]hept-6-yl)-propoxy]-imidazo[1,2-a]pyridin-3-yl}-pyrimidin-4-yl)-amine]	3.2	94
Cn1cc(-c2ccc(CNc3cc(-c4cnc5cc(OCCCN6CCCCC6)ccn45)ncn3)cc2)cn1 [A237, N-{[4-(1-methyl-1H-pyrazol-4-yl)phenyl]methyl}-6-{7-[3-(piperidin-1-yl)propoxy]imidazo[1,2-a]pyridin-3-yl}pyrimidin-4-amine]	4.3	35
COc1ccn2c(-c3cc(OC(C)c4ccc(-c5cnn(C)c5)cc4)ncn3)cnc2c1 (stereo not drawn) [A171, 7-methoxy-3-(6-{1-[4-(1-methyl-1H-pyrazol-4-yl)-phenyl]-ethoxy}-pyrimidin-4-yl)-imidazo[1,2-a]pyridine]	58	–
Cn1ncc(-c2ccc(CNc3cc(-c4cnc5cc(N6CCN(C7COC7)CC6)ccn45)ncn3)cc2)n1 [A244, [4-(2-methyl-2H-[1,2,3]triazol-4-yl)-benzyl]-{6-[7-(4-oxetan-3-yl-piperazin-1-yl)-imidazo[1,2-a]pyridin-3-yl]-pyrimidin-4-yl}-amine]	21	–
COc1ccn2c(-c3cc(NCc4ccc(-c5cnn(C)n5)nc4)ncn3)cnc2c1 [A45, [6-(7-methoxy-imidazo[1,2-a]pyridin-3-yl)-pyrimidin-4-yl]-[6-(2-methyl-2H-[1,2,3]triazol-4-yl)-pyridin-3-ylmethyl]-amine]	130	–
Cn1cc(-c2ccc(CNc3cc(-c4cnc5cc(OCc6nccn6C)ccn45)ncn3)cc2)nn1 [A110, {6-[7-(1-methyl-1H-imidazol-2-ylmethoxy)-imidazo[1,2-a]pyridin-3-yl]-pyrimidin-4-yl}-[4-(1-methyl-1H-[1,2,3]triazol-4-yl)-benzyl]-amine]	110	–
COc1ccn2c(-c3cc(NCc4ccc(-c5cnc(CO)n5C)cc4)ncn3)cnc2c1 [A174, [5-(4-{[6-(7-Methoxy-imidazo[1,2-a]pyridin-3-yl)-pyrimidin-4-ylamino]-methyl}-phenyl)-1-methyl-1H-imidazol-2-yl]-methanol]	260	–
Cn1cc(-c2ccc(CNc3cc(-c4cnc5cc(OCCCN6CC(F)C6)ccn45)ncn3)cc2)cn1 [A240, (6-{7-[3-(3-fluoro-azetidin-1-yl)-propoxy]-imidazo[1,2-a]pyridin-3-yl}-pyrimidin-4-yl)-[4-(1-methyl-1H-pyrazol-4-yl)-benzyl]-amine]	7.3	–
Cn1ncc(-c2ccc(CNc3cc(-c4cnc5cc(OCCCN6CCN(C7CC7)CC6)ccn45)ncn3)cc2)n1 [A253, (6-{7-[3-(4-cyclopropyl-piperazin-1-yl)-propoxy]-imidazo[1,2-a]pyridin-3-yl}-pyrimidin-4-yl)-[4-(2-methyl-2H-[1,2,3]triazol-4-yl)-benzyl]-amine]	6.5	–
Cn1cc(-c2ccc(CNc3cc(-c4cnc5cc(OCCN6CCC67COC7)ccn45)ncn3)cc2)cn1 [A207, [4-(1-methyl-1H-pyrazol-4-yl)-benzyl]-(6-{7-[2-(6-oxa-1-aza-spiro[3.3]hept-1-yl)-ethoxy]-imidazo[1,2-a]pyridin-3-yl}-pyrimidin-4-yl)-amine]	8.7	–

More lines, in order of falling IC50 (c-Kit(V654A)), values ahead:

IC50 (c-Kit(V654A)) [nM]	IC50 [1] [nM]	Compound
260	–	COc1ccn2c(-c3cc(NCc4ccc(-c5cnc(C)nc5N)cc4)ncn3)cnc2c1 [A43, 5-(4-{[(6-{7-methoxyimidazo[1,2-a]pyridin-3-yl}pyrimidin-4-yl)amino]methyl}phenyl)-2-methylpyrimidin-4-amine]
160	–	COc1ccn2c(-c3cc(NCc4ccc(-c5cnn(CCN6CCCC6)c5)cc4)ncn3)cnc2c1 [A24, [6-(7-methoxy-imidazo[1,2-a]pyridin-3-yl)-pyrimidin-4-yl]-{4-[1-(2-pyrrolidin-1-yl-ethyl)-1H-pyrazol-4-yl]-benzyl}-amine]
120	–	COCC(COC)Oc1ccn2c(-c3cc(NCc4ccc(-c5cnn(C)c5)cc4)ncn3)cnc2c1 [A54, {6-[7-(2-methoxy-1-methoxymethyl-ethoxy)-imidazo[1,2-a]pyridin-3-yl]-pyrimidin-4-yl}-[4-(1-methyl-1H-pyrazol-4-yl)-benzyl]-amine]
110	–	COc1ccn2c(-c3cc(NCc4ccc(-c5cnn(CCN6CCOCC6)c5)cc4)ncn3)cnc2c1 [A22, [6-(7-methoxy-imidazo[1,2-a]pyridin-3-yl)-pyrimidin-4-yl]-{4-[1-(2-morpholin-4-yl-ethyl)-1H-pyrazol-4-yl]-benzyl}-amine]
100	2300	COc1ccn2c(-c3cc(NCc4ccc(C(=O)N(C)C)cc4)ncn3)cnc2c1 [A13, 4-{[(6-{7-methoxyimidazo[1,2-a]pyridin-3-yl}pyrimidin-4-yl)amino]methyl}-N,N-dimethylbenzamide]
88	–	COc1ccn2c(-c3cc(NCc4ccc(-c5cnn(CC6CNC6)c5)cc4)ncn3)cnc2c1 [A159, N-[(4-{1-[(azetidin-3-yl)methyl]-1H-pyrazol-4-yl}phenyl)methyl]-6-{7-methoxyimidazo[1,2-a]pyridin-3-yl}pyrimidin-4-amine]
63	–	COc1ccn2c(-c3cc(NCc4ccc(-n5cnc6ccccc65)cc4)ncn3)cnc2c1 [A27, N-{[4-(1H-1,3-benzodiazol-1-yl)phenyl]methyl}-6-{7-methoxyimidazo[1,2-a]pyridin-3-yl}pyrimidin-4-amine]
25	490	COc1ccn2c(-c3cc(NCc4ccc(-c5cn(C)nc5OC)cc4)ncn3)cnc2c1 [A50, N-{[4-(3-methoxy-1-methyl-1H-pyrazol-4-yl)phenyl]methyl}-6-{7-methoxyimidazo[1,2-a]pyridin-3-yl}pyrimidin-4-amine]
24	–	Cn1cc(-c2ccc(CNc3cc(-c4cnc5cc(OCC6CN(CC(F)(F)F)C6)ccn45)ncn3)cc2)cn1 [A254, N-{[4-(1-methyl-1H-pyrazol-4-yl)phenyl]methyl}-6-(7-{[1-(2,2,2-trifluoroethyl)azetidin-3-yl]methoxy}imidazo[1,2-a]pyridin-3-yl)pyrimidin-4-amine]
12	–	CN1CC(F)(COc2ccn3c(-c4cc(NCc5ccc(-c6cnn(C)c6)cc5)ncn4)cnc3c2)C1 [A256, 6-{7-[(3-fluoro-1-methylazetidin-3-yl)methoxy]imidazo[1,2-a]pyridin-3-yl}-N-{[4-(1-methyl-1H-pyrazol-4-yl)phenyl]methyl}pyrimidin-4-amine]
7.4	53	CN1CCOC[C@@H]1COc1ccn2c(-c3cc(NCc4ccc(-c5cnn(C)c5)cc4)ncn3)cnc2c1 [A124, N-{[4-(1-methyl-1H-pyrazol-4-yl)phenyl]methyl}-6-(7-{[(3R)-4-methylmorpholin-3-yl]methoxy}imidazo[1,2-a]pyridin-3-yl)pyrimidin-4-amine]
6.5	–	Cn1cc(-c2ccc(CNc3cc(-c4cnc5cc(OCCCN6CC[S+]([O-])CC6)ccn45)ncn3)cc2)cn1 [A241, [4-(1-methyl-1H-pyrazol-4-yl)-benzyl]-(6-{7-[3-(1-oxo-1|4-thiomorpholin-4-yl)-propoxy]-imidazo[1,2-a]pyridin-3-yl}-pyrimidin-4-yl)-amine]
3.3	48	CC(COc1ccn2c(-c3cc(NCc4ccc(-c5cnn(C)n5)cc4)ncn3)cnc2c1)CN1CCCC1 (stereo not drawn) [A227, {6-[7-(2-methyl-3-pyrrolidin-1-yl-propoxy)-imidazo[1,2-a]pyridin-3-yl]-pyrimidin-4-yl}-[4-(2-methyl-2H-[1,2,3]triazol-4-yl)-benzyl]-amine]
